# The source made the active and inactive calls. The rule behind the calls is not given here.
# Tests used:
# [1] = species: Homo sapiens; assay: Inhibition of human DNA polymerase-gamma by radiometric assay
# [2] = Cytotoxicity against human W11.8 cells assessed as reduction in cell viability after 4 days; assay type: cell-based
# [3] = molecular target: DNA polymerase beta (Homo sapiens) (UniProt P06746); assay: Inhibition of human DNA polymerase-beta by fluorescence/radiometric assay
# [4] = molecular target: Nonstructural protein 5A (Hepatitis C virus, UniProt Q5L478); assay: Inhibition of HCV genotype 2a NS5A; design: species or system Hepatitis C virus subtype 2a
# [5] = molecular target: RNA-directed RNA polymerase (Hepacivirus hominis, UniProt O39930, L419I); assay: Inhibition of HCV genotype 1a NS5B L419I mutant; design: species or system Hepatitis C virus subtype 1a
# [6] = molecular target: RNA-directed RNA polymerase (Hepacivirus hominis, UniProt O39930, M423I); assay: Inhibition of HCV genotype 1a NS5B M423I mutant; design: species or system Hepatitis C virus subtype 1a
# [7] = test system: Hepatitis C virus subtype 1b; assay: Inhibition of HCV genotype 1b NS5B assessed as suppression of sub-genomic RNA levels at 0.5 times IC50 after 96 hrs in presence of human interferon alpha2a and ribavirin by luciferase reporter gene assay
# [8] = Metabolic stability in rat hepatocytes assessed as compound remaining at 10 uM after 2 hrs; assay type: ADME, cell-based, Hepatocyte; settings: read-out: Stability
# [9] = Metabolic stability in rat liver microsomal S9 fraction assessed as compound remaining at 1 uM after 2 hrs in presence of NADPH; assay type: ADME, subcellular; settings: read-out: Stability
# [10] = Protein binding in rat plasma at 1 uM; assay type: ADME, cell-free; settings: read-out: PPB (converted)
# [11] = Metabolic stability in dog hepatocytes assessed as compound remaining at 10 uM after 2 hrs; assay type: ADME, cell-based, Canis lupus familiaris, Hepatocyte; settings: read-out: Stability
# [12] = Metabolic stability in dog liver microsomal S9 fraction assessed as compound remaining at 1 uM after 2 hrs in presence of NADPH/UDPGA; assay type: ADME, subcellular, Canis lupus familiaris; settings: read-out: Stability
# [13] = Metabolic stability in monkey liver microsomal S9 fraction assessed as compound remaining at 1 uM after 2 hrs in presence of NADPH; assay type: ADME, subcellular, Macaca mulatta; settings: rhesus monkey, read-out: Stability
# [14] = Metabolic stability in human hepatocytes assessed as compound remaining at 10 uM after 2 hrs; assay type: ADME, cell-based, Hepatocyte; settings: read-out: Stability
# [15] = molecular target: T1, Cytochrome P450 3A4 (Homo sapiens, UniProt P08684); assay: Drug metabolism in human liver S9 fraction assessed as CYP3A4-mediated metabolite formation after 1 hr; assay type: ADME, subcellular; settings: s9, 1 h
# [16] = molecular target: Cytochrome P450 2E1 (Homo sapiens, UniProt P05181); assay: Inhibition of CYP2E1 (unknown origin); assay type: ADME
# [17] = molecular target: T1, Cytochrome P450 3A4; assay: Induction of CYP3A4 (unknown origin) in hepatocytes; assay type: ADME, cell-based
# [18] = test system: Hepatocyte; assay: Change in CYP1A2 mRNA levels in hepatocytes (unknown origin); assay type: ADME, cell-based
# [19] = test system: Hepatocyte; assay: Change in CYP3A4 mRNA levels in hepatocytes (unknown origin); assay type: ADME, cell-based
# [20] = test system: MDR1; assay: Efflux ratio of permeability from basolateral to apical side over apical to basolateral side in MDCK cells expressing MDR1; assay type: ADME, cell-based, Canis lupus familiaris; settings: dog
# [21] = Half life in Sprague-Dawley rat at 1 mg/kg, iv through bolus administration; assay type: ADME, organism-based; settings: in vivo
# [22] = Cmax in Sprague-Dawley rat at 3 mg/kg, po; assay type: ADME, organism-based; design: dose 3 mg/kg, route oral; settings: in vivo
# [23] = Oral bioavailability in Sprague-Dawley rat at 3 mg/kg; assay type: ADME, organism-based; settings: in vivo
# [24] = Half life in Sprague-Dawley rat at 3 mg/kg, po; assay type: ADME, organism-based; settings: in vivo
# [25] = Ratio of drug level in liver to lungs in Sprague-Dawley rat at 10 mg/kg, po; assay type: ADME, organism-based, Liver/Lung; settings: in vivo
# [26] = Ratio of drug level in liver to heart in Sprague-Dawley rat at 10 mg/kg, po; assay type: ADME, organism-based; settings: in vivo
# [27] = Ratio of drug level in liver to kidney in Sprague-Dawley rat at 10 mg/kg, po; assay type: ADME, organism-based; settings: in vivo
# [28] = Oral bioavailability in dog at 3 mg/kg; assay type: ADME, organism-based, Canis lupus familiaris; settings: in vivo
# [29] = Clearance in Fischer 344 rat at 1 mg/kg, iv through bolus administration; assay type: ADME, organism-based; settings: in vivo
# [30] = Half life in Fischer 344 rat at 1 mg/kg, iv through bolus administration; assay type: ADME, organism-based; settings: in vivo
# [31] = Cmax in Fischer 344 rat at 3 mg/kg, po; assay type: ADME, organism-based; design: dose 3 mg/kg, route oral; settings: in vivo
# [32] = Half life in dog at 1 mg/kg, iv through bolus administration; assay type: ADME, organism-based, Canis lupus familiaris; settings: in vivo
# [33] = AUC (0 to infinity) in monkey at 1 mg/kg, iv through bolus administration; assay type: ADME, organism-based, Macaca mulatta; design: dose 1 mg/kg, route intravenous, time infinity; settings: rhesus monkey, in vivo
# [34] = Clearance in monkey at 1 mg/kg, iv through bolus administration; assay type: ADME, organism-based, Macaca mulatta; settings: rhesus monkey, in vivo
# [35] = Volume of distribution in steady state in monkey at 1 mg/kg, iv through bolus administration; assay type: ADME, organism-based, Macaca mulatta; settings: rhesus monkey, in vivo, read-out: Vdss
# [36] = Solubility of the compound in potassium phosphate buffer at pH 7; assay type: physicochemical
# [37] = test system: NS3 protease (Hepacivirus C), C1KIQ2 [V36M]; assay: Inhibition of telaprevir-resistant HCV NS3 protease V36M mutant; settings: Hepacivirus hominis
# [38] = test system: NS3 protease (Hepacivirus C), C1KIQ2 [T54A]; assay: Inhibition of telaprevir-resistant HCV NS3 protease T54A mutant; settings: Hepacivirus hominis
# [39] = test system: NS3 protease (Hepacivirus C), C1KIQ2 [R155K]; assay: Inhibition of telaprevir-resistant HCV NS3 protease R155K mutant; settings: Hepacivirus hominis
# [40] = test system: Nonstructural protein 5A (Hepatitis C virus), Q5L478 [UNDEFINED MUTATION]; assay: Inhibition of BMS-790052-resistant HCV genotype 1a NS5A Q30H mutant; settings: Hepatitis C virus subtype 1a
# [41] = test system: Nonstructural protein 5A (Hepatitis C virus), Q5L478 [UNDEFINED MUTATION]; assay: Inhibition of BMS-790052-resistant HCV genotype 1a NS5A Q30R mutant; settings: Hepatitis C virus subtype 1a
# [42] = test system: Nonstructural protein 5A (Hepatitis C virus), Q5L478 [UNDEFINED MUTATION]; assay: Inhibition of BMS-790052-resistant HCV genotype 1a NS5A L31V mutant; settings: Hepatitis C virus subtype 1a
# [43] = test system: Nonstructural protein 5A (Hepatitis C virus), Q5L478 [Y93C]; assay: Inhibition of BMS-790052-resistant HCV genotype 1a NS5A Y93C mutant; settings: Hepatitis C virus subtype 1a
# [44] = test system: Nonstructural protein 5A (Hepatitis C virus), Q5L478 [UNDEFINED MUTATION]; assay: Inhibition of BMS-790052-resistant HCV genotype 1a NS5A Y93H mutant; settings: Hepatitis C virus subtype 1a
# [45] = test system: Nonstructural protein 5A (Hepatitis C virus), Q5L478 [UNDEFINED MUTATION]; assay: Inhibition of BMS-790052-resistant HCV genotype 1b NS5A L31V mutant; settings: Hepatitis C virus subtype 1b
# [46] = molecular target: CYP450 (family, isoform not stated) (Homo sapiens, UniProt P04798+P05177+P05181+P08684+P10632+P10635+P11509+P11712+P13584+P20813+P20815+P20853+P24462+P24903+P33260+P33261+P51589+P78329+P98187+Q02928+Q08477+Q16678+Q16696+Q5TCH4+Q6VVX0+Q7Z449+Q8TAV3+Q96SQ9+Q9HB55); assay: Inhibition of CYP450 (unknown origin); assay type: ADME, protein assay
# [47] = test system: MDCK; assay: Ratio of permeability in MDCK cells expressing OATP1B1 to permeability in wild type MDCK cells; assay type: ADME, cell-based, Canis lupus familiaris; settings: dog
# [48] = molecular target: Nonstructural protein 5A (Hepatitis C virus) (UniProt Q5L478); assay: Ratio of EC50 for HCV genotype 1b NS5A infected in human l389lucubi- neo/NS3-375.1-containing Huh7ET cells in presence of 40% human serum to EC50 for HCV genotype 1b NS5A infected in human l389lucubi- neo/NS3-375.1-containing Huh7ET cells; settings: Hepatitis C virus subtype 1b
smiles,measurement,setting,value
CC(C)(C)C#Cc1cc(N(CC(=O)N2CCOCC2)C(=O)[C@H]2CC[C@H](C)CC2)c(C(=O)O)s1,inhibition,[1],inactive
same,CC50 at 96 h,[2],> 20 µM
same,inhibition,[3],inactive
same,EC50,[4],4.8 µM
same,EC50,[5],0.4 µM
same,EC50,[6],0.089 µM
same,inhibition,[7],Active
same,"remaining at 2 h, 10 µM",[8],100%
same,"remaining at 2 h, 1 µM",[9],99%
same,fraction unbound at 1 µM,[10],0.003
same,"remaining at 2 h, 10 µM",[11],70%
same,"remaining at 2 h, 1 µM",[12],82%
same,"remaining at 2 h, 1 µM",[13],19%
same,"remaining at 2 h, 10 µM",[14],77%
same,Drug metabolism,[15],< 5%
same,IC50,[16],14 µM
same,Activity,[17],Not Active
same,Activity,[18],Non-Toxic
same,Activity,[19],Non-Toxic
same,efflux ratio,[20],9.8
same,half-life,[21],2.35 h
same,Cmax,[22],1730 ng/mL
same,bioavailability,[23],69%
same,half-life,[24],3.04 h
same,Ratio,[25],10
same,Ratio,[26],10
same,Ratio,[27],10
same,bioavailability,[28],57.3%
same,clearance,[29],13.8 mL/min/kg
same,half-life,[30],1.67 h
same,Cmax,[31],240 ng/mL
same,half-life,[32],9.8 h
same,AUC(0-inf),[33],1730 ng·h/mL
same,clearance,[34],9.9 mL/min/kg
same,Vd,[35],0.23 L/kg
same,solubility,[36],1800 µg/mL
same,inhibition,[37],Active
same,inhibition,[38],Active
same,inhibition,[39],Active
same,inhibition,[40],Active
same,inhibition,[41],Active
same,inhibition,[42],Active
same,inhibition,[43],Active
same,inhibition,[44],Active
same,inhibition,[45],Active
same,IC50,[46],> 40 µM
same,Ratio,[47],3
same,Ratio EC50,[48],10 to 20
